Assay results as given in US20200138764A1, “METHODS AND DEVICES FOR ACTIVATING ADIPOSE TISSUE” (The Procter & Gamble Company, priority 2018, published 2020).

What was measured:
human TRPM8 = test: TRPM8 Protocol-FLIPR Assay (intracellular Ca2+); type: cell-based; settings: HEK-293 cells stably transfected with human TRPM8, Fluo-4 AM, relative to benchmark agonist WS-5
Procedure: To determine whether TRPM8 is activated, the intracellular calcium ion (Ca^2+) level was measured from transfected cells with the TRPM8 receptor sequence (SEQ ID NO: 1). HEK-293 (human embryonic kidney) cells stably transfected with human TRPM8 were grown in 15 mL growth medium (high glucose DMEM (Dulbecco's Modification of Eagle's Medium) supplemented with 10% FBS (fetal bovine serum), 100 μg/mL penicillin/streptomycin, 5 μg/mL blasticindin, and 100 μg/mL zeocin) in a 75 cm^2 flask for 3 days at 37° C. in a mammalian cell culture incubator (Forma Scientific Model 3110, Marietta, Ohio) set at 5% CO2. Cells were detached with addition of 2 mL of trypsin-EDTA buffer (GIBCO® 25200, Invitrogen, Grand Island, N.Y.) for about 2-3 min. Trypsin was inactivated by addition of 8 mL growth medium. Cells were transferred to a 50 mL tube and centrifuged at 850 rpm for 3 minutes to remove medium. After centrifugation, a pellet of cells was formed in the bottom of the tube separating them from the supernatant solution. The supernatant was discarded and the cell pellet was suspended in 1 mL of fresh growth medium to which 5 μL (12.5 μg) of Fluo-4 AM (Molecular Probes, Inc., Eugene, Oreg.) calcium indicator was added and incubated for 30 min with gentle shaking. Fluo-4 AM is a fluorescent dye used for quantifying cellular Ca^2+ concentrations in the 100 nM to 1 μM range. At the end of 30 minutes, 45 mL of assay buffer (1×HBSS (Hank's Balanced Salt Solution), 20 mM HEPES (4-(2-Hydroxyethyl)-1-piperazineethanesulfonic acid)) was added to wash cells and the resulting mixture was then centrifuged at 850 rpm for 3 minutes at 20° C. to remove excess buffer and Fluo-4 AM calcium indicator.
The pelleted cells were re-suspended in 10 mL assay buffer and 90 μL aliquots (˜50,000 cells) per well delivered to a 96-well assay plate containing 10 μL of test compounds (1 mM in assay buffer, final concentration 100 μM) or buffer control and incubated at room temperature for 30 minutes. After 30 minutes, a plate (Falcon 353219, Corning Corning N.Y.) was placed into a fluorometric imaging plate reader (FLIPR384 from Molecular Devices, Sunnyvale, Calif.) and basal fluorescence recorded (excitation wave length 488 nm and emission wave length 510 nm). Then 20 μL of 100 mM of TRPM8 agonist WS5 coolant in the assay buffer was added and fluorescence recorded. For determining the direct effect of test compounds on TRPM8, fluorescence was measured immediately after addition of each compound (TABLE 1). Additional discussion of the FLIPR method can be found in Smart et al., Characterization using FLIPR of human vanilloid VR1 receptor pharmacology, European Journal of Pharmacology 417, 51-58 (2001) and Liu et al., Development and validation of a platelet calcium flux assay using a fluorescent imaging plate reader, Analytical Biochemistry 357, 216-224 (2006).
The magnitude of the fluorescence of the active-treated cells was compared to the magnitude of the fluorescence from a benchmark agonist (WS-5), as described above. The percentage of fluorescence as a function of active dose was plotted and a sigmoidal curve was generated. Curve fitting from this dose-response curve yielded the value for TRPM8 IC50 in nM.
TRPM8 activation was determined by measuring intracellular calcium ion (Ca^2+) level from transfected cells with the TRPM8 receptor gene, as described in EXAMPLE 1, the results of which are shown in TABLE 1. IC50 values are provided in column 3 of TABLE 1, which measured the concentration of activating compound needed to reduce intracellular [Ca^2+] by 50%. […]

[1] = system: Human subcutaneous pre-adipocytes; test: Lipogenesis Assay (AdipoRed staining); type: cell-based; settings: AdipoRed fluorescence, NI = no inhibition at concentration less than/equal to 1 mM
Procedure: Lipogenesis is the process by which acetyl-CoA is converted to fatty acid. Through lipogenesis and subsequent triglyceride synthesis, energy can be stored in the form of adipose tissue (i.e. fats). To determine what effect, if any, activating compounds (shown in TABLE 1) had on lipogenesis, the protocol listed below was used.
To determine whether the activating compounds (shown in TABLE 1) impacted the formation of white adipocytes from pre-adipocytes, a lipogenesis assay was performed. The cells utilized in the protocol were cryo-preserved Human subcutaneous pre-adipocytes superlot (Zen-Bio, Inc., Research Triangle Park, N.C., Cat # SP-F-SL). The growth media used was PM-1 (Zen-Bio, Inc., Research Triangle Park, N.C., cat # PM-1) plus 5 ng/mL Epidermal Growth Factor (EGF). The PM-1+5 ng/mL EGF was prepared by adding 12.5 uL of 200 ug/mL EGF stock to 500 mL PM-1. The differentiation media used was DM-2 (Zen-Bio, Inc., Research Triangle Park, N.C., cat # DM-2). The adipocyte maintenance media used was AM-1 (Zen-Bio, Inc., Research Triangle Park, N.C., cat # AM-1).
First, the human subcutaneous pre-adipocyte cells were thawed in a 37° C. water bath. Next, the thawed pre-adipocyte cells were added to 9 mL of growth medium (PM-1) at 20° C. in a 15 mL polypropylene tube (Bioexpress, Corning, Corning, N.Y.). The tube was centrifuged at 280×g (˜1100 rpm) at 20° C. for 5 min. After 5 min, the supernatant was removed and the accumulated solids were re-suspended in 2 mL of PM-1 using trituration. The suspension of cells was counted under 100× magnification using a Cyto C-Chip hemacytometer (Incyto, Seoul, South Korea, cat # DHC-N01-5). In order to proceed, 15-50 cells per 1×1 mm square in hemacytometer was needed. If, the number of cells per square was not met, 6.7×10^5 (670,000) cells per T75 flask (Bioexpress, Corning, Corning, N.Y.) were added to each square and the suspension was diluted to 20 mL with PM-1. Every other day, new media was added to replace media removed due to metabolism by the cells. The cells were re-counted as described previously. Cells were grown to 80-90% confluence, which took approximately 4-5 days. 80-90% confluence is determined by visual inspection of the area of the flask occupied by the cells. When 80-90% of the flask area has been occupied, cells are at 80-90% confluence. Cell colonies were then split 1:6 by harvesting from a single flask and equally dividing the harvested cells into six flasks. Colonies were not allowed to exceed 3 passages and were not grown to complete confluence. The pre-adipocytes were grown until they contact with other cells in the flask to aid differentiation into white or brown adipocytes.
After the pre-adipocytes were sufficiently grown to 90% confluence, the cells were ready for differentiation and treatment with an activating compound. Cells were washed with 3 mL of PBS and detached using 3 mL of Trypsin EDTA. The cells were incubated at 37° C. for 5 minutes. Next, the cells were centrifuged at 280×g at 20° C. for 5 minutes. The supernatant was discarded and the resulting pellet was re-suspended in 10 mL of PM-1 using trituration. Cells were counted at 100× magnification and the cells were diluted to 86,667 cells/mL (˜13,000 cells/150 μL) by adding the necessary amount of PM-1 to achieve the desired concentration. Upon addition of PM-1, samples were swirled by hand to evenly disperse the cells prior to plating.
Once confluence is reached, 150 μL of differentiation media (DM-2) was added (DAY 0). Samples were incubated at 37° C. for 6 days. On DAY 6, 90 μL of media was removed from each sample via aspiration, without touching the bottom of the well. Next, 140 μL of adipocyte maintenance medium (AM-1) was added. The AM-1 ran down the side of well. On DAY 6, activating compounds were added (2 μL of 10 mM activating compound) to give a final concentration of 100 μM of activating compounds. […]

adipocytes = test: Real Time PCR analysis of adipocytes, in vitro; type: cell-based, human
Procedure: For Real Time PCR analysis of adipocytes, cells from cultures grown in 24 well plates were collected. RNA was isolated using RNeasy Kit (Cat 74104, Qiagen, Germantown, Md.) using manufacturer's protocol. RNA was quantitated using the Nanodrop 1000 (Thermofisher, Waltham, Mass.). cDNA formation was carried out using PowerUp SYBR™ Green Master Mix and real time PCR carried out on QuantStudio 6 machine (ThermoFisher, Waltham, Mass.) per manufacturer protocol. ΔΔCT analysis was done using the Expression Suite software (ThermoFisher) purchased with the instrument.
TABLE 2 used Real Time PCR to determine which proteins were expressed in adipocytes upon treatment with activating compounds. […] Real Time PCR values were relative to a control sample that was not treated with any activating compounds. […] In WS-5 and Menthol, no Real Time PCR value was over 2.0, which indicated only slight changes in mRNA expression.

[2] = Real Time PCR, relative to untreated control = 1

**Q.** For `CC(C)[C@@H]1CC[C@@H](C)C[C@H]1C(=O)OC[C@@H](NC(=O)[C@H](C)N)c1ccccc1` [Formula V], which IC50 (human TRPM8) is on record?
**A.** 340 nM

**Q.** And the IC50 ([1]; Homo sapiens)?
**A.** 80 µM

**Q.** How did the IC50 (human TRPM8) turn out when `CC(C)[C@@H]1CC[C@@H](C)C[C@H]1C(=O)OC[C@@H](NC(=O)[C@@H](C)N)c1ccccc1` [Formula VI] was run?
**A.** 8 nM

**Q.** What about the IC50 ([1]; Homo sapiens) of the same compound?
**A.** 40 µM

**Q.** `CC(C)[C@@H]1CC[C@@H](C)C[C@H]1C(=O)NCC(NC(=O)[C@H](C)N)c1ccccc1` (stereo partly drawn) [Comparative Example 2] was tested. Which IC50 (human TRPM8) did it give?
**A.** 10 to 12 nM

**Q.** And the IC50 [1]?
**A.** 900 µM

**Q.** And the IC50 ([1]; Homo sapiens)?
**A.** 800 µM

**Q.** How did the IC50 ([1]; Homo sapiens) turn out when `CC(C)[C@@H]1CC[C@@H](C)C[C@H]1C(=O)NC[C@@H](NC(=O)[C@@H](C)N)c1ccccc1` [Formula IV] was run?
**A.** 800 µM

**Q.** What about the “Relative Expression of mRNA in Adipocytes: 18S” value (adipocytes; [2]) of the same compound?
**A.** 0.95

**Q.** And the “Relative Expression of mRNA in Adipocytes: ACADM” value (adipocytes; [2])?
**A.** 1.4

**Q.** What about the “Relative Expression of mRNA in Adipocytes: CPT1A” value (adipocytes; [2]) of the same compound?
**A.** 1.7

**Q.** What about the “Relative Expression of mRNA in Adipocytes: FASN” value (adipocytes; [2]) of the same compound?
**A.** 1.35

**Q.** And the “Relative Expression of mRNA in Adipocytes: GAPDH” value (adipocytes; [2])?
**A.** 1

**Q.** And the “Relative Expression of mRNA in Adipocytes: PPARGC1A” value (adipocytes; [2])?
**A.** 1.1

**Q.** And the “Relative Expression of mRNA in Adipocytes: PRDM16” value (adipocytes; [2])?
**A.** 0.7

**Q.** And the “Relative Expression of mRNA in Adipocytes: UCP-1” value (adipocytes; [2])?
**A.** 1.8

**Q.** What about the “Real Time PCR value (any of the proteins of TABLE 2)” value (adipocytes; upper bound over all proteins, relative to untreated control) of the same compound?
**A.** ≤ 2

**Q.** Which IC50 ([1]; Homo sapiens) does the source give for `CC(C)[C@@H]1CC[C@@H](C)C[C@H]1C(=O)NCC(NC(=O)[C@@H](C)N)c1ccccc1` (stereo partly drawn) [Comparative Example 1] here?
**A.** 800 µM
